# Results as given in patent US12570957B2, “Isolated naive pluripotent stem cells and methods of generating same” (Yeda Research and Development Co. Ltd., priority 2013, dated 2026).
# Experiments:
# naive hPSCs = assay: Single-cell cloning efficiency, naive cells; assay type: cell-based, human; conditions: in the presence of ROCK inhibitor
# Text: (§1) FIGS. 74A-74D depict enhanced growth rate and single cell cloning efficiency of human naive pluripotent stem cells. FIG. 74A—Population doubling time of various mouse and human pluripotent stem cell lines. After plating each cell lines in replicates, cells were harvested at days 2,4 and 6 and there growth was normalized by counting cell number at each stage and calculating growth rate relative to the number of cells harvested and counted at day 2 (rather than number of plated cells to account for variability in survival after plating). Error bars represent s.d., and P values represent t-test of average from primed hESC/hiPSC lines to average of naive hESC/hiPSC lines. FIG. 74B—Single-cell cloning efficiency of different pluripotent stem cell lines as determined by the number of wells containing NANOG+ colonies 6 days after plating (with or without ROCK inhibitor as indicated in the figure). * indicates student's t-test P value <0.01 between the average of the compared groups. Error bars indicate s.d. […] Single-cell cloning efficiency of different pluripotent stem cell lines as determined by the number of wells containing Nanog+ colonies 6 days after plating (without using ROCK inhibitor as indicated in the figure). * indicates student's t-test P value <0.01 between the average of the compared groups. […]
# primed hESCs and hiPSCs = assay: Single-cell cloning efficiency, primed cells; assay type: cell-based, human; conditions: in the presence of ROCK inhibitor
# Text: as §1
# PKCβ = PKCβ (Homo sapiens, UniProt P05771); conditions: read-out: IC50 for PKC0; cited from earlier work
# Sequence of PKCβ (P05771 whole entry, species assumed): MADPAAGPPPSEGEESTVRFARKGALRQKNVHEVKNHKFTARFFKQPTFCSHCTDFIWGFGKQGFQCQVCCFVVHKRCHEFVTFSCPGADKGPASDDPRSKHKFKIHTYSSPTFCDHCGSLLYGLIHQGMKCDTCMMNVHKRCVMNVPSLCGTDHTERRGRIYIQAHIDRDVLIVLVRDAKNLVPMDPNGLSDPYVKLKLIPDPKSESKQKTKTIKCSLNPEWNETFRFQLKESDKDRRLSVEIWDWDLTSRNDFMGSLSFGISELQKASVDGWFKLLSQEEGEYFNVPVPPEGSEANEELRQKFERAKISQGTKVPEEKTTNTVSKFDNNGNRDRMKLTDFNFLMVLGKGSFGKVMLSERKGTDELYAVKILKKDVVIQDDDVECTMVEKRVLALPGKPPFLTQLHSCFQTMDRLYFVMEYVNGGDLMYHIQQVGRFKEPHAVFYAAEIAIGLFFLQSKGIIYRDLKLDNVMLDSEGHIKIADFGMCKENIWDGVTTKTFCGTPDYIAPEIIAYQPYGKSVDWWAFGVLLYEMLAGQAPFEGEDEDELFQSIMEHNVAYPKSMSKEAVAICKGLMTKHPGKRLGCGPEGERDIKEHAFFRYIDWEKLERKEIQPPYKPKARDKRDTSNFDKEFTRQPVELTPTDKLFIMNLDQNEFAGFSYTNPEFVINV
# PKCμ = molecular target: T1, PKCμ (Homo sapiens, UniProt Q15139); conditions: read-out: IC50 for PKCp; cited from earlier work
# T1 sequence (Q15139 1-912): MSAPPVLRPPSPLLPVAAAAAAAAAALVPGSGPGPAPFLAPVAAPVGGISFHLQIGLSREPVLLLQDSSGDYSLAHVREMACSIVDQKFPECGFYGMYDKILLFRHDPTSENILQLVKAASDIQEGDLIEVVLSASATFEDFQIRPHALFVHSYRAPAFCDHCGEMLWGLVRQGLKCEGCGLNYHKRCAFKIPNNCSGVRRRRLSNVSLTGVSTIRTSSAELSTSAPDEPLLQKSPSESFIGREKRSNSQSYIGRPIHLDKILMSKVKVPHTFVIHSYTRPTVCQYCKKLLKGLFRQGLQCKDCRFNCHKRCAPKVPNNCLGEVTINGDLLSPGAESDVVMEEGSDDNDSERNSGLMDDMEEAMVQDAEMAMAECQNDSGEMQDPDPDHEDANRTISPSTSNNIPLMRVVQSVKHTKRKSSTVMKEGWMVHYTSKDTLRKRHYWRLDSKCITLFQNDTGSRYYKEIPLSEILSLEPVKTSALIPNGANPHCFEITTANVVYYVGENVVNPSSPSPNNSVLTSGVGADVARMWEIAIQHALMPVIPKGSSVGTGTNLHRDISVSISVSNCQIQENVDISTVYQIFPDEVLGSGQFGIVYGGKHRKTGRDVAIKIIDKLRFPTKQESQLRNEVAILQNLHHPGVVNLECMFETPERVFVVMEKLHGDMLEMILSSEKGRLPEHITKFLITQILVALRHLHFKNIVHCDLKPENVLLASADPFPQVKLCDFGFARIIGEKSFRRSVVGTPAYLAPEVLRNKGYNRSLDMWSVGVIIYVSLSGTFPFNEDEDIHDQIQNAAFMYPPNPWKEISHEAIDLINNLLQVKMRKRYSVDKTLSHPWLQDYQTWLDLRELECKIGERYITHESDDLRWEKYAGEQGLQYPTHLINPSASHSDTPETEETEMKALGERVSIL
# PKCδ = PKCδ (Homo sapiens, UniProt Q05655); conditions: read-out: IC50 for PKC6; cited from earlier work
# Sequence of PKCδ (Q05655 whole entry): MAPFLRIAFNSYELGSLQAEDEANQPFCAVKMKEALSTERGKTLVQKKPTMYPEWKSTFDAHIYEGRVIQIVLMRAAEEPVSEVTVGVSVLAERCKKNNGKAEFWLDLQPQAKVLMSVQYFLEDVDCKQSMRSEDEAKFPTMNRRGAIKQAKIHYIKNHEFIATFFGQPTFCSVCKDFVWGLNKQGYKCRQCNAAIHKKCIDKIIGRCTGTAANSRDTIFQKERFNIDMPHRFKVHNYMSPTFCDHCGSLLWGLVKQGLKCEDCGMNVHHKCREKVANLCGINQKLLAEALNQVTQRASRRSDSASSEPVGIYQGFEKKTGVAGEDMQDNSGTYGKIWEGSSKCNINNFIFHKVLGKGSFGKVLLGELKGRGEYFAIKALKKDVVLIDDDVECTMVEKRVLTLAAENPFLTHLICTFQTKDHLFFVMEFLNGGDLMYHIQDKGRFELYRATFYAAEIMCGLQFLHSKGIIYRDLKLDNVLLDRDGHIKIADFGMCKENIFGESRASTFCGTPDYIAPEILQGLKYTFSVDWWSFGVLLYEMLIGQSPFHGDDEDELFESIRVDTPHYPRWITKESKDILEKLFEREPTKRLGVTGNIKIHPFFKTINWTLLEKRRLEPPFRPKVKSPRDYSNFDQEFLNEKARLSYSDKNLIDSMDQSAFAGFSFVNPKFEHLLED
# MBD3 = assay: Western blot for MBD3 protein expression in V6.5 mouse ES cells after 4 days treatment; assay type: cell-based; conditions: 2i/LIF plus agent at 5 micromolar
# Text: FIGS. 1O1A-101B are Western blot analyses showing expression of MBD3 (FIG. 101B) and of HSP90 (FIG. 101A) in v6.5 mouse ES cells after different treatments. V6.5 mouse ES cells were expanded for 4 days in the indicated conditions and subjected to Western blot analysis for MBD3 protein expression. Following are the abbreviations and concentrations of the indicated factors and agents. PBS=phosphate buffered saline; “LIF”=leukemia inhibitory factor, provided at a concentration of 20 nanograms/milliliter (ng/ml); KSR=knockout serum replacement; “2i/LIF”=small-molecule inhibitors CHIR99021 (CH, 3 M—Axon Medchem) and PD0325901 (PD, 1 M—TOCRIS), with 20 ng/ml LIF; “DMSO”=Dimethyl sulfoxide at a concentration of 0.1%; TGFRi (inhibitor of transforming growth factor receptor; SB431542 at 5 micromolar); PKC-i (inhibitor of protein kinase C; Go6983 at 5 micromolar).
# V6.5 mouse ES cells were expanded for 4 days in various conditions in order to identify combination of factors which result in reduced MBD3 protein levels.
# PKCγ = PKCγ (Homo sapiens, UniProt P05129); conditions: read-out: IC50 for PKCy; cited from earlier work
# PKCζ = molecular target: T2, PKCζ (Homo sapiens, UniProt Q05513); conditions: read-out: IC50 for PKC; cited from earlier work
# T2 sequence (Q05513 1-592): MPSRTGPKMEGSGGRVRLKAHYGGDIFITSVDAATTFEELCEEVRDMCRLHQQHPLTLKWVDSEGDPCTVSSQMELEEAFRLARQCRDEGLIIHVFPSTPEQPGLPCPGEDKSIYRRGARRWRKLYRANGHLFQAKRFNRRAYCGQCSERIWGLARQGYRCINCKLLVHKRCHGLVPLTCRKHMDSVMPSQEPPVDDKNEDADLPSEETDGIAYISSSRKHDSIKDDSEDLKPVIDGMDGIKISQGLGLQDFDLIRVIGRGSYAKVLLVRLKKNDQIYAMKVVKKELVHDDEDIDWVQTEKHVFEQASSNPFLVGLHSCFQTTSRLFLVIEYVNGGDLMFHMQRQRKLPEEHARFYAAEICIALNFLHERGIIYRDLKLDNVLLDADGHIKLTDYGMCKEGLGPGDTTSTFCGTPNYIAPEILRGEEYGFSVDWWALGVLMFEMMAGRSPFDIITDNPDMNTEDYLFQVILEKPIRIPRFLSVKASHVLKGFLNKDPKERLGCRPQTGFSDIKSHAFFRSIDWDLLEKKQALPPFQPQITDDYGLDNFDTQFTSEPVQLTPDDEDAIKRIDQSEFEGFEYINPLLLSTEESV
# PKCα = PKCα (Homo sapiens, UniProt P17252); conditions: read-out: IC50 for PKCu; cited from earlier work
# Mbd3 binding to Chd4 = molecular target: T3, Mbd3 binding to Chd4 (Homo sapiens, UniProt O95983); assay: Co-immunoprecipitation of Flag-Mbd3 interacting proteins in 293T cells; assay type: cell-based; conditions: Flag-Mbd3 IP
# T3 construct: expressed in transfected cells; host or cells: 293T cells
# T3 sequence (O95983 1-291): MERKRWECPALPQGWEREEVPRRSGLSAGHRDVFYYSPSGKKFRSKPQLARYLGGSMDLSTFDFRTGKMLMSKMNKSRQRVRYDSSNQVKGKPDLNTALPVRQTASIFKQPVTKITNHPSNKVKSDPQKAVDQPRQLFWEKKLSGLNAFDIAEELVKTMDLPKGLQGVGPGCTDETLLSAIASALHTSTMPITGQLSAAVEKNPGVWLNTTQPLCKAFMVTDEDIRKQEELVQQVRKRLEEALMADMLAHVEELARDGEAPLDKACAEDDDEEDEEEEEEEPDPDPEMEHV
# Text: 293T cells were transfected with both with Flag-Mbd3 (WT) and P66a-CC (SEQ ID NO:71; GenBank Accession NO. NM_017660.3) or a control vector (mCherry), Mbd3 15 interacting proteins were pulled down by immunoprecipitation (IP) using Flag-magnetic beads.
# The present inventors overexpressed MBD3-WT (SEQ ID NO: 112) and the HA-tagged p66u-CC in 293T cells, and further show in a co-immunoprecipitation for anti-Mbd3 pulldown, that the presence of p66u inhibits MBD3 binding and recruitment to CHD4 (FIG. 93).
# naive hESCs/hiPSCs = assay: Substitution of p38 inhibitor in WIS-NHSM, OCT4-GFP expression; assay type: cell-based, human; conditions: used instead of SB203580 in WIS-NHSM
# naive cells = assay: Pluripotency (Oct4-GFP) after passaging with DNA methylation or EED inhibitors; assay type: cell-based, human and mouse; conditions: Oct4-GFP reporter
molecule,measurement,setting,value
"C[C@@H](N)[C@H]1CC[C@H](C(=O)Nc2ccncc2)CC1 [ROCK inhibitor, Y-27632]",single cell cloning efficiency,naive hPSCs,up to 88%
same,single cell cloning efficiency,primed hESCs and hiPSCs,up to 22%
COc1ccc2c(c1)c(C1=C(c3c[nH]c4ccccc34)C(=O)NC1=O)cn2CCCN(C)C [Go6983],IC50,PKCβ,7 nM
same,IC50,PKCμ,20000 nM
same,IC50,PKCδ,10 nM
same,MBD3 protein levels,MBD3,significant depletion
same,MBD3 protein levels,MBD3; listed as PKC inhibitor,significant reduction
same,IC50,PKCγ,6 nM
same,IC50,PKCζ,60 nM
same,IC50,PKCα,7 nM
"P66a-CC: P66 alpha coiled-coil domain, SEQ ID NO:114, expressed by transfection (PEERERMIKQLKEELRLEEAKLVLLKKLRQSQIQKEATAQK; (1)..(41) P66 alpha coiled-coil domain; listed as Homo sapiens) [Condition P66a-CC]",Chd4 interaction with Mbd3,Mbd3 binding to Chd4,specific loss of Chd4 interaction with Mbd3
Oc1ccc(-c2nc(-c3ccncc3)c(-c3ccc(F)cc3)[nH]2)cc1 [SB202190],change in OCT4-GFP expression,naive hESCs/hiPSCs,without any change
Cc1ccc(-n2nc(C(C)(C)C)cc2NC(=O)Nc2ccc(OCCN3CCOCC3)c3ccccc23)cc1 [BIRB796],change in OCT4-GFP expression,naive hESCs/hiPSCs,without any change
Nc1nccc2c1ncn2C1C=C(CO)C(O)C1O (stereo not shown) [DzNEP],pluripotency after passaging in presence of inhibitor,naive cells,retain their pluripotency
NC(=O)c1ccc(-c2nc(-c3ccc4c(c3)OCO4)c(-c3ccccn3)[nH]2)cc1 [SB431542],MBD3 protein levels,MBD3,did not affect
Nc1ncn([C@H]2C[C@H](O)[C@@H](CO)O2)c(=O)n1 [Condition 5d-AZA],pluripotency after passaging in presence of inhibitor,naive cells,retain their pluripotency
